≈ marks a conversion by molar mass, not a printed value. Calls of active or inactive are those of the source. The calls are words filed in the database; no cut-off is given here.
What was measured:
Trypanosoma brucei [1] = assay: Antitrypanosomal activity against bloodstream Trypanosoma brucei 427 after 72 hrs by resazurin assay; format: functional, organism-based; conditions: Trypanosoma brucei, 427, 72 h
L929 = assay: Cytotoxicity against mouse L929 cells after 72 hrs by resazurin assay; format: cell-based; conditions: L929, 72 h
Trypanosoma brucei [2] = assay: Antitrypanosomal activity against bloodstream Trypanosoma brucei 221 infected in Balb/c mouse assessed as increase in mouse survival rate at 50 mg/kg, ip BID for 5 days starting 24 hrs post infection measured after 30 days by microscopic analysis; format: functional; conditions: Trypanosoma brucei, 221, ip, route intraperitoneal
Trypanosoma brucei [3] = assay: Antitrypanosomal activity against bloodstream Trypanosoma brucei 221 infected in Balb/c mouse assessed as complete elimination of parasitemia at 50 mg/kg, ip BID for 5 days starting 24 hrs post infection measured after 30 days by microscopic analysis; format: functional, organism-based; parameters: dose 50 mg/kg
[4] = Selectivity ratio of IC50 for mouse L929 cells to IC50 for bloodstream Trypanosoma brucei 427; format: ADME, cell-based; conditions: read-out: Ratio IC50

SMILES	IC50 (Trypanosoma brucei [1])	IC50 (L929)	survival at 50 mg/kg (Trypanosoma brucei [2])	Activity (Trypanosoma brucei [3])	selectivity ratio [4]
CCOC(=O)c1ccc(C(=O)/C=C/c2ccc3c(c2)B(O)OC3)cc1	0.2 µg/mL (≈ 0.595 µM)	> 10 µg/mL	–	–	–
COc1cccc(C(=O)/C=C/c2ccc3c(c2)B(O)OC3)c1	0.022 µg/mL (≈ 0.0748 µM)	> 10 µg/mL	100%	Active	–
O=C(/C=C/c1ccc2c(c1)B(O)OC2)c1ccc([N+](=O)[O-])cc1	0.082 µg/mL (≈ 0.265 µM)	> 10 µg/mL	–	–	–
Cn1cccc1C(=O)/C=C/c1ccc2c(c1)B(O)OC2	0.057 µg/mL (≈ 0.213 µM)	> 10 µg/mL	–	–	–
O=C(/C=C/c1ccc2c(c1)B(O)OC2)c1ccc(O)c(O)c1	0.055 µg/mL (≈ 0.186 µM)	> 10 µg/mL	–	–	–
Cc1cccc(C(=O)/C=C/c2ccc3c(c2)B(O)OC3)c1	0.048 µg/mL (≈ 0.173 µM)	8.56 µg/mL (≈ 30.8 µM)	0%	–	–
Cc1ccc(C(=O)/C=C/c2ccc3c(c2)B(O)OC3)cc1C	0.04 µg/mL (≈ 0.137 µM)	> 10 µg/mL	–	–	–
CC(=O)Nc1ccc(C(=O)/C=C/c2ccc3c(c2)B(O)OC3)cc1	0.04 µg/mL (≈ 0.125 µM)	> 10 µg/mL	0%	–	–
O=C(/C=C/c1ccc2c(c1)B(O)OC2)c1cccs1	0.045 µg/mL (≈ 0.167 µM)	> 10 µg/mL	20%	–	–
O=C(/C=C/c1ccc2c(c1)B(O)OC2)c1ccccc1	0.089 µg/mL (≈ 0.337 µM)	> 10 µg/mL	0%	–	–
OB1OCc2ccc(/C=C/C(O)c3ccccc3)cc21 (centres undefined)	0.239 µg/mL (≈ 0.898 µM)	2.88 µg/mL (≈ 10.8 µM)	–	–	–
COc1ccc(C(=O)/C=C/c2ccc3c(c2)B(O)OC3)c(OC)c1	0.037 µg/mL (≈ 0.114 µM)	7.87 µg/mL (≈ 24.3 µM)	–	–	–
O=C(/C=C/c1ccc2c(c1)B(O)OC2)c1ccco1	0.064 µg/mL (≈ 0.252 µM)	> 10 µg/mL	–	–	–
O=C(/C=C/c1ccc2c(c1)B(O)OC2)c1ccc(C(F)(F)F)cc1	0.133 µg/mL (≈ 0.4 µM)	> 10 µg/mL	–	–	–
COc1cc(C(=O)/C=C/c2ccc3c(c2)B(O)OC3)ccc1[N+](=O)[O-]	0.044 µg/mL (≈ 0.13 µM)	> 10 µg/mL	0%	–	–
O=C(/C=C/c1ccc2c(c1)B(O)OC2)c1ccc2c(c1)OCCO2	0.08 µg/mL (≈ 0.248 µM)	6.8 µg/mL (≈ 21.1 µM)	–	–	–
COc1cccc(C(=O)CCc2ccc3c(c2)B(O)OC3)c1	0.69 µg/mL (≈ 2.33 µM)	> 10 µg/mL	–	–	–
O=C(/C=C/c1ccc2c(c1)B(O)OC2)c1ccc(F)cc1	0.1 µg/mL (≈ 0.355 µM)	> 10 µg/mL	0%	–	–
O=C(/C=C/c1ccc2c(c1)B(O)OC2)c1ccc(Cl)cc1	0.06 µg/mL (≈ 0.201 µM)	> 10 µg/mL	0%	–	–
O=C(/C=C/c1ccc2c(c1)B(O)OC2)c1ccc(Cl)c(Cl)c1	0.09 µg/mL (≈ 0.27 µM)	> 10 µg/mL	–	–	–
COCOc1ccccc1C(=O)/C=C/c1ccc2c(c1)B(O)OC2	0.366 µg/mL (≈ 1.13 µM)	9.02 µg/mL (≈ 27.8 µM)	–	–	–
COc1cc(C(=O)/C=C/c2ccc3c(c2)B(O)OC3)ccc1N	0.01 µg/mL (≈ 0.0323 µM)	1.45 µg/mL (≈ 4.69 µM)	100%	Active	> 100
COc1ccc(C(=O)/C=C/c2ccc3c(c2)B(O)OC3)cc1	0.071 µg/mL (≈ 0.241 µM)	> 10 µg/mL	0%	–	–
COCOc1cccc(C(=O)/C=C/c2ccc3c(c2)B(O)OC3)c1	0.071 µg/mL (≈ 0.219 µM)	> 10 µg/mL	0%	–	–
O=C(/C=C/c1ccc2c(c1)B(O)OC2)c1ccc(Br)cc1	0.09 µg/mL (≈ 0.262 µM)	> 10 µg/mL	0%	–	–
COc1ccc(C(=O)/C=C/c2ccc3c(c2)B(O)OC3)cc1OC	0.03 µg/mL (≈ 0.0926 µM)	> 10 µg/mL	–	–	–
COc1cc(C(=O)/C=C/c2ccc3c(c2)B(O)OC3)cc(OC)c1OC	0.113 µg/mL (≈ 0.319 µM)	> 10 µg/mL	–	–	–

More lines, main results first:

IC50 (Trypanosoma brucei [1])	SMILES	IC50 (L929)	survival at 50 mg/kg (Trypanosoma brucei [2])	Activity (Trypanosoma brucei [3])	selectivity ratio [4]
0.056 µg/mL (≈ 0.201 µM)	Nc1cccc(C(=O)/C=C/c2ccc3c(c2)B(O)OC3)c1	10 µg/mL (≈ 35.8 µM)	–	–	–
0.024 µg/mL (≈ 0.086 µM)	Nc1ccc(C(=O)/C=C/c2ccc3c(c2)B(O)OC3)cc1	> 10 µg/mL	–	–	–
0.395 µg/mL (≈ 1.66 µM)	COc1cccc(C(=O)/C=C/c2ccccc2)c1	5.7 µg/mL (≈ 23.9 µM)	–	–	–
0.164 µg/mL (≈ 0.443 µM)	O=C(/C=C/c1ccc2c(c1)B(O)OC2)c1ccc(OCc2ccccc2)cc1	> 10 µg/mL	–	–	–
0.171 µg/mL (≈ 0.438 µM)	O=C(/C=C/c1ccc2c(c1)B(O)OC2)c1ccc(I)cc1	> 10 µg/mL	–	–	–
0.064 µg/mL (≈ 0.219 µM)	CCc1ccc(C(=O)/C=C/c2ccc3c(c2)B(O)OC3)cc1	> 10 µg/mL	–	–	–
0.099 µg/mL (≈ 0.373 µM)	O=C(/C=C/c1ccc2c(c1)B(O)OC2)c1ccccn1	> 10 µg/mL	–	–	–
0.473 µg/mL (≈ 2.27 µM)	O=C(/C=C/c1ccccc1)c1ccccc1 [CHALCONE]	6.92 µg/mL (≈ 33.2 µM)	–	–	–
0.037 µg/mL (≈ 0.132 µM)	O=C(/C=C/c1ccc2c(c1)B(O)OC2)c1cccc(O)c1	7.56 µg/mL (≈ 27 µM)	–	–	–
0.331 µg/mL (≈ 1.24 µM)	O=C(CCc1ccc2c(c1)B(O)OC2)c1ccccc1	> 10 µg/mL	–	–	–
0.172 µg/mL (≈ 0.614 µM)	O=C(/C=C/c1ccc2c(c1)B(O)OC2)c1ccccc1O	> 10 µg/mL	–	–	–
0.046 µg/mL (≈ 0.165 µM)	Cc1ccc(C(=O)/C=C/c2ccc3c(c2)B(O)OC3)cc1	> 10 µg/mL	–	–	–
0.436 µg/mL (≈ 1.28 µM)	O=C(/C=C/c1ccc2c(c1)B(O)OC2)c1ccc(-c2ccccc2)cc1	> 10 µg/mL	–	–	–
0.058 µg/mL (≈ 0.197 µM)	COc1ccccc1C(=O)/C=C/c1ccc2c(c1)B(O)OC2	6.35 µg/mL (≈ 21.6 µM)	–	–	–
0.135 µg/mL (≈ 0.43 µM)	O=C(/C=C/c1ccc2c(c1)B(O)OC2)c1cccc2ccccc12	3.67 µg/mL (≈ 11.7 µM)	–	–	–
4.45 µg/mL (≈ 14.4 µM)	O=C(O)c1ccc(C(=O)/C=C/c2ccc3c(c2)B(O)OC3)cc1	> 10 µg/mL	–	–	–
0.059 µg/mL (≈ 0.19 µM)	CSc1ccc(C(=O)/C=C/c2ccc3c(c2)B(O)OC3)cc1	> 10 µg/mL	–	–	–
0.046 µg/mL (≈ 0.163 µM)	O=C(/C=C/c1ccc2c(c1)B(O)OC2)c1cccc(F)c1	> 10 µg/mL	–	–	–
0.071 µg/mL (≈ 0.252 µM)	O=C(/C=C/c1ccc2c(c1)B(O)OC2)c1ccccc1F	> 10 µg/mL	–	–	–
0.043 µg/mL (≈ 0.154 µM)	O=C(/C=C/c1ccc2c(c1)B(O)OC2)c1ccc(O)cc1	> 10 µg/mL	–	–	–

Source: ChEMBL document CHEMBL2034952, “Chalcone-benzoxaborole hybrid molecules as potent antitrypanosomal agents” (J Med Chem, 2012)
